“Also recorded” adds a separate entry of the source.

Holding throughout (format): cell-based, human
Test [1] has as its system IMR-90-4 hiPSCs. Description: PCR and qRT-PCR of trophoblast cell marker transcripts and C19 miRNAs. The note with it: for CDX2 transcript level (qRT-PCR) / GATA3 transcript level (qRT-PCR) / KLF4 transcript level (qRT-PCR) / KRT7 transcript level (qRT-PCR): 5 days of incubation, compared to UM alone (FIG. 10); for CDX2 mRNA transcript level (PCR / RT-PCR): after 5 days in UM with 1 μM RA, 8 μM CHIR, RA+CHIR or 1 μM SU6656. The protocol:
For differentiation, 70% confluent stem cells were rinsed with DPBS (Gibco) and pre-warmed Accutase was added to the wells. Cells were then placed at 37° C. for 5-7 minutes. Following incubation, cells were removed from the well with a p1000 pipette. The cells in Accutase solution were then added to a conical tube containing an equal volume of fresh media and spun down at 200×g for 5 minutes. The cells were then resuspended and seeded on Matrigel-coated plates at 6,000 cells/cm^2 in TeSR-E8 or mTeSR Plus with 5 μM ROCK inhibitor (Y-27632, Stem Cell Tech). Cells were maintained in E8 or mTeSR Plus for two more days, and then the medium was changed to unconditioned medium (UM): […] RA and/or CHIR were excluded in control experiments (FIG. 1), as described. Cell culture media was changed daily for five days. The induced multipotent placental cells produced by this method are termed iMPC1 cells (also referred herein, as iMPC1-D5 cells). As described herein, the cells may alternatively be exposed to RA+CHIR for 3 or 4 days. For example, iMPC1-D3 and iMPC1-D4, may also be produced wherein the cells are exposed to RA+CHIR for 3 and 4 days, respectively. Cell pellets were collected and lysed using QiaShredder columns (Qiagen). RNA was isolated using the RNeasy Mini Kit (Qiagen) as the manufacturer recommends, including incubation with DNase I (RNAse-free DNase Set, Qiagen). Collected RNA was quantified using a NanoDrop. Reverse transcription was performed on 1000 ng RNA using the Omni script RT Kit (Qiagen). RNA with Oligo-dT primer (Life Tech) was denatured for 5 minutes at 65° C. before the remaining elements were added and incubated at 37° C. for 1 hour. Quantitative real time PCR (qRT-PCR) was performed using iTaq Universal SYBR Green Supermix (Bio Rad) as the manufacturer recommends. Primers (Table 2) were added at 250 nM each (forward and reverse). Analysis was performed on a Bio Rad CFX Connect Real-Time PCR system. GAPDH was used as a reference gene, and error was propagated using the […] method. PCR was performed identically as above through the reverse transcription step to generate cDNA. GoTaq Master Mix (Promega) was used for PCR per the manufacturer's instructions. Primers (Table 2) were added at […] each. PCR products were visualized on a 2% agarose gel containing SYBR Safe (Thermo Fisher) after electrophoresis at […] for 100 minutes. Gels were imaged using a ChemiDoc Touch Gel/Blot Reader (Bio Rad).
For orientation: In qPCR the cycle at which signal appears reflects the starting amount.

Test [2] relates to IMR-90-4 hiPSCs. Description: Immunostaining for pluripotency and lineage-specific markers after treatment. The note with it: for CDX2 protein expression (immunostaining): after 5 days incubation, 1 μM RA, 8 μM CHIR-99021, 1 μM SU6656 or RA+CHIR in UM or E6; for Keratin 8 expression (immunostaining): UM+1 μM RA or UM+1 μM SU6656. The protocol:
For differentiation, 70% confluent stem cells were rinsed with DPBS (Gibco) and pre-warmed Accutase was added to the wells. Cells were then placed at 37° C. for 5-7 minutes. Following incubation, cells were removed from the well with a p1000 pipette. The cells in Accutase solution were then added to a conical tube containing an equal volume of fresh media and spun down at 200×g for 5 minutes. The cells were then resuspended and seeded on Matrigel-coated plates at 6,000 cells/cm^2 in TeSR-E8 or mTeSR Plus with 5 μM ROCK inhibitor (Y-27632, Stem Cell Tech). Cells were maintained in E8 or mTeSR Plus for two more days, and then the medium was changed to unconditioned medium (UM): […] RA and/or CHIR were excluded in control experiments (FIG. 1), as described. Cell culture media was changed daily for five days. The induced multipotent placental cells produced by this method are termed iMPC1 cells (also referred herein, as iMPC1-D5 cells). As described herein, the cells may alternatively be exposed to RA+CHIR for 3 or 4 days. For example, iMPC1-D3 and iMPC1-D4, may also be produced wherein the cells are exposed to RA+CHIR for 3 and 4 days, respectively. For immunocytochemistry analysis, cells were rinsed 2× with PBS and then fixed for 10 minutes with 4% paraformaldehyde (PFA) at room temperature. […] Primary antibodies (Table 1A) were diluted into PBSGT and incubated on cells overnight at 4° C. Cells were washed 3× in PBST for 15 minutes, and then secondary antibodies (Table 1B) were diluted 1:500 in PBSGT and incubated on the cells for 1 hour at room temperature. Following a 10-minute PBS wash, cells were incubated with a DAPI solution for 10 minutes. Another 10-minute PBS wash was performed before the cells were imaged on an EVOS microscope.

The subject of test [3] is IMR-90-4 hiPSCs. Briefly: Flow cytometry of CDX2, Oct-4, GATA3 and Keratin 7 in hiPSCs differentiated with RA and/or CHIR. Particulars: 5 days in UM, 1 μM RA with or without 8 μM CHIR. The protocol: For differentiation, 70% confluent stem cells were rinsed with DPBS (Gibco) and pre-warmed Accutase was added to the wells. Cells were then placed at 37° C. for 5-7 minutes. Following incubation, cells were removed from the well with a p1000 pipette. The cells in Accutase solution were then added to a conical tube containing an equal volume of fresh media and spun down at 200×g for 5 minutes. The cells were then resuspended and seeded on Matrigel-coated plates at 6,000 cells/cm^2 in TeSR-E8 or mTeSR Plus with 5 μM ROCK inhibitor (Y-27632, Stem Cell Tech). Cells were maintained in E8 or mTeSR Plus for two more days, and then the medium was changed to unconditioned medium (UM): DMEM/F12 with 20% Knockout serum replacement, MEM non-essential amino acids (1×), GlutaMAX (lx, Life Tech), and 0.1 mM β-mercaptoethanol (Sigma), containing 1 μM retinoic acid (RA, Sigma) and […] (Tocris). RA and/or CHIR were excluded in control experiments (FIG. 1), as described. Cell culture media was changed daily for five days. The induced multipotent placental cells produced by this method are termed iMPC1 cells (also referred herein, as iMPC1-D5 cells). […]
Cells were rinsed 2× with PBS and then pre-warmed Accutase was added to the wells. […] Plots shown are representative of a single independent replicate, but medians and standard deviations were calculated from three independent replicates.
For orientation: A flow cytometer gives signals particle by particle.

With `Cc1cnc(-c2cnc(NCCNc3ccc(C#N)cn3)nc2-c2ccc(Cl)cc2Cl)[nH]1` [CHIR-99021, 6-[[2-[[4-(2,4-Dichlorophenyl)-5-(5-methyl-1H-imidazol-2-yl)-2-pyrimidinyl]amino]ethyl]amino]-3-pyridinecarbonitrile], in the test with IMR-90-4 hiPSCs [1], the “CDX2 transcript level (qRT-PCR)” value is listed as “upregulating”, the “GATA3 transcript level (qRT-PCR)” value is recorded as “compromised the expression”, the “KLF4 transcript level (qRT-PCR)” value is on record as “compromised the expression” and the “KRT7 transcript level (qRT-PCR)” value is listed as “compromised the expression”. The “CDX2 mRNA transcript level (PCR / RT-PCR)” value in the test with IMR-90-4 hiPSCs [1] is recorded as “low levels of CDX2 expression”. For the same molecule, the “CDX2 protein expression (immunostaining)” value with IMR-90-4 hiPSCs [2] is “unable to induce CDX2 protein expression”.
In the case of `CC1=C(/C=C/C(C)=C/C=C/C(C)=C/C(=O)O)C(C)(C)CCC1` [RA, retinoic acid], in the test with IMR-90-4 hiPSCs [1], the “CDX2 transcript level (qRT-PCR)” value is reported as “upregulation”, the “GATA3 transcript level (qRT-PCR)” value was “upregulation”, the “KLF4 transcript level (qRT-PCR)” value is recorded as “upregulation” and the “KRT7 transcript level (qRT-PCR)” value is listed as “upregulation”. In addition, in the test with IMR-90-4 hiPSCs [1], the “CDX2 mRNA transcript level (PCR / RT-PCR)” value is “heightened expression; also recorded: restricted to the RA condition”. Further, in the test with IMR-90-4 hiPSCs [3], the “interquartile range (IQR) of CDX2 expression (flow cytometry)” value was 119. Further, the “CDX2 median expression intensity (flow cytometry)” value in the test on IMR-90-4 hiPSCs [3] (p<0.001) was 1348±42. Besides, in the test with IMR-90-4 hiPSCs [2] (1 μM RA in UM, 5 days), the “Keratin 18 (KRT18) expression (immunostaining)” value is listed as “gained expression” and the “Oct-4 expression (immunostaining)” value is “lost expression”. Moreover, in the test on IMR-90-4 hiPSCs [2] (5 days in UM, 0.1, 1 and 10 μM RA tested), the “lowest concentration tested which resulted in CDX2 expression” value was found to be 1 µM. Also, the “Keratin 8 expression (immunostaining)” value with IMR-90-4 hiPSCs [2] (5 days) is reported as “expressed in all conditions”. Moreover, the “CDX2 protein expression (immunostaining)” value with IMR-90-4 hiPSCs [2] is “gained expression; also recorded: restricted to the RA condition”.
On to `CN(C)S(=O)(=O)c1ccc2c(c1)/C(=C/c1cc3c([nH]1)CCCC3)C(=O)N2` [SU6656], for which the “CDX2 mRNA transcript level (PCR / RT-PCR)” value in the test on IMR-90-4 hiPSCs [1] was “restricted to the RA condition”. For the same molecule, the “Keratin 8 expression (immunostaining)” value in the test with IMR-90-4 hiPSCs [2] (5 days) is reported as “expressed in all conditions”. In addition, the “CDX2 protein expression (immunostaining)” value with IMR-90-4 hiPSCs [2] was “restricted to the RA condition”.

(Values after patent US20230183643A1, “COMPOSITIONS AND METHODS FOR PRODUCING PLACENTAL CELLS” (Regents of the University of Minnesota, priority 2021, published 2023).)
